Experiments:
[1] = system: cleaved-PARP, cleaved-caspase 3, Bcl-2 in MDA-MB-231 and BT-20 cells; experiment: Western blot of indicators of apoptosis; format: cell-based
Protocol: (§1) Sub-confluent cells were washed with PBS, lysed in RIPA buffer (50 mM Tris-HCl at pH7.5, 150 mM sodium chloride, 1% tritonX-100, 0.1% SDS, 2 mM EDTA and 25 mM sodium fluoride) supplemented with 1 mM PMSF and protease inhibitor cocktail (Roche) for 10 min on ice and centrifuged (13,000 rpm at 4° C. for 20 min) to separate cell lysate. Cell lysate (50 μg protein, as measured by the Bradford protein assay) was then added with SDS sample buffer (Tris at pH 6.8, 20% glycerol, 5% SDS, bromophenol blue and β-mercaptoethanol) and boiled for 5 min. Samples were then resolved through 13% SDS-PAGE gels, transferred to nitrocellulose membrane, blotted with specific first antibodies at different dilution in cold room overnight, and then amplified with horseradish peroxidase-conjugated secondary antibodies for 1 hour in room temperature and enhanced by chemiluminescence detection system.
Considering apoptosis is the major form of cell death induced by chemotherapeutic agent, we seek to identify whether the anticancer effect of SLLN-15 was mediated via apoptosis in breast cancer cells.

[2] = system: Akt/mTOR pathway in MDA-MB-231 and BT-20 cells; experiment: Western blot of the Akt/mTOR pathway; format: cell-based; conditions: FIG. 4A
Protocol: as §1
The PI3K/Akt/mTOR pathway is a well-established pathway that is frequently activated in cancer cells and acts as a key negative regulator of autophagy (Schmelzle T et al. TOR, a central controller of cell growth Cell 2000; 103:253-62; Shi J et al. IL10 inhibits starvation-induced autophagy in hypertrophic scar fibroblasts via cross talk between the IL10-IL10R-STAT3 and IL10-AKT-mTOR pathways Cell Death Dis 2016; 7:e2133). […]

Aurora kinase A = target: T1, Aurora kinase A (Homo sapiens, UniProt O14965); experiment: SelectScreen kinase profiling (Invitrogen), high-throughput screening against a panel of kinases; format: biochemical; conditions: 100 nM screening concentration
T1 sequence (O14965 1-403): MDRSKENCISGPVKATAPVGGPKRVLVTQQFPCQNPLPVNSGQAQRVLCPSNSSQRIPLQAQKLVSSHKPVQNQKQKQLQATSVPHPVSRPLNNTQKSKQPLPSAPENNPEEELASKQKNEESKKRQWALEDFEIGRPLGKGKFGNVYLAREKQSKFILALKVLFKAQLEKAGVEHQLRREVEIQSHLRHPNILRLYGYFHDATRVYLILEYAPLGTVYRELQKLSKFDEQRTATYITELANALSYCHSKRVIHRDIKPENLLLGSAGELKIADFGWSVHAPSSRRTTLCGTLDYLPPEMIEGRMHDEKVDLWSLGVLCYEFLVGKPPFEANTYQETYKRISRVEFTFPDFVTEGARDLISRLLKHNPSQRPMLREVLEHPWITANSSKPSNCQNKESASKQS
Protocol: (§2) FIG. S3A represents the SelectScreen kinase profiling (Invitrogen) results obtained against a panel of kinases for SLLN-15 at 100 nM.
(§3) To further evaluate cellular Aurora kinase inhibitory activity of SLLN-15, western blot analysis was carried out in both MDA-MB-231 and BT-20 cell lines. […] To gain further insight into the mechanism underlying the regulation of Aurora A and B by SLLN-15, we next examined whether Aurora A and B were degraded via the proteasome pathway.

Janus kinase 2 (JAK2) = Janus kinase 2 (JAK2) (Homo sapiens, UniProt O60674); experiment: as above; format: biochemical; conditions: 100 nM screening concentration
Sequence of Janus kinase 2 (JAK2) (O60674 whole entry): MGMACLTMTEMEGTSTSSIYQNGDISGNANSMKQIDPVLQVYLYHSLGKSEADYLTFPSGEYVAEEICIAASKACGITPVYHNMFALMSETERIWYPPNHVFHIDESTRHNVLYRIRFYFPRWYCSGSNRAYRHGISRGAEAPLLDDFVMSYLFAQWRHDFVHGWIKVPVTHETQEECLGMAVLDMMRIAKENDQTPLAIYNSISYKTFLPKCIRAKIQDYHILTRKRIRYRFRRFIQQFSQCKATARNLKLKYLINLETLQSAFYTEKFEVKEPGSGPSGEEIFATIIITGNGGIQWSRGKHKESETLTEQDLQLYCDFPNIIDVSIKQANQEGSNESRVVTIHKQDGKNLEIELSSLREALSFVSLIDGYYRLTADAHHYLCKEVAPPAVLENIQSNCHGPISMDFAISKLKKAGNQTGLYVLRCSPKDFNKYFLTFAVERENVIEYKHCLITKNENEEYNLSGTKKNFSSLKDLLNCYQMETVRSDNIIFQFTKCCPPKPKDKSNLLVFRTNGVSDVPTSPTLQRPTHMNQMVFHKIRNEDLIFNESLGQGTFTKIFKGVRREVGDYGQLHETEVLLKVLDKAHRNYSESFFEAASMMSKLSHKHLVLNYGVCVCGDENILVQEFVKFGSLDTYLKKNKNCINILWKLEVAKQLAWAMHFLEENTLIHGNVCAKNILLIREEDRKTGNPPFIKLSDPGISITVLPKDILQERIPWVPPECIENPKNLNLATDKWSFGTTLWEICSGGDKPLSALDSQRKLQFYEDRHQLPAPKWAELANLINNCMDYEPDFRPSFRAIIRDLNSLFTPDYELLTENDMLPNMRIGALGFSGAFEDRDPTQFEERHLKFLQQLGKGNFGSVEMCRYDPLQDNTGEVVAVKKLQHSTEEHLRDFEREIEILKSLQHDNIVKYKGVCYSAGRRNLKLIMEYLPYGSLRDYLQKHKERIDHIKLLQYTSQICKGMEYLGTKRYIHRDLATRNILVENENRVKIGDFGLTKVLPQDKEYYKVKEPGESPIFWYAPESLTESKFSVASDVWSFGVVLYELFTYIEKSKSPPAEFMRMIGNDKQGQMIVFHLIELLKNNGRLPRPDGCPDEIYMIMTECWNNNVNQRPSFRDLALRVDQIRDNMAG
Protocol: as §2, §3

[3] = system: MDA-MB-231-M2 or 4T1 tumors; experiment: In vivo anti-metastatic activity in tumor-bearing mice
Text: (§4) Breast cancer stem-like cells (BCSCs), heterogeneously subsisting as CD24low/CD44high and ALDHhigh subpopulations, are enriched in aggressive breast cancer subtypes and believed to be responsible for driving metastatic colonization. Despite evidence of a clinical association between BCSC and poor prognosis, effective therapeutic means to target this cell population is lacking. We identified SLLN-15 as a compound with selective anti-sternness activity across a panel of cell lines expressing ALDHhigh and CD24low/CD44high markers, including MDA-MB-231, SUM-149PT, BT-20, SKBR3, 4T1 and several anaplastic thyroid cell lines. […] In summary, our data foster that targeting regulatory networks driving sternness represent important therapeutic targets for treating metastatic breast disease.

In vivo tolerability = experiment: In vivo tolerability; parameters: species or system mice; conditions: administered intraperitoneally
Text: as §4

[4] = system: 4T1 cells (triple-negative breast carcinoma); experiment: In vivo orthotopic allograft model of breast cancer; parameters: species or system BALB/c mice
Protocol: All experiments were carried out according to protocol number 4101 of the McGill University Animal Care Committee. Mouse mammary carcinoma 4T1 cells (1×10^6 cells/each mouse) were transplanted into the mammary fat pad of BALB/c mice. […] Tumor size was measured using a caliper, and tumor volume was calculated as […] (length×width2). Mice were sacrificed 40 days after transplanting. Tumor tissues were isolated and fixed in 10% formalin. The lungs were fixed in 10% Bouin's fixative and lung metastatic nodules on the surface were counted using a stereomicroscope (Optimax; Leica).

[5] = system: MDA-MB-231 and BT-20 cells; experiment: MTT assay (short-term cell viability); format: cell-based
Protocol: The short-term effects of SLLN-15 on tumor cell growth were assessed using the 3-(4,5-dimethylthiazol-2-yl)-2,5-diphenylte-trazolium bromide (MTT; Sigma) assay. Cells were seeded at a density of 5000 cells/well in a 96-well plate and treated with SLLN-15 as indicated concentration or DMSO for 24 hours. MTT solution (5 mg/ml in RPMI 1640 medium) was added (20 μl/well), and plates were incubated for 4 hours in dark at 37° C., then the purple formazan crystals were then dissolved in 100 μl MTT solvent (4 mM HCl and 0.1% NP-40 in isopropanol). The plates were read on FLUOstar OPTIMA microplate reader (BMG Labtech, Ortenberg, Germany) at 570 nm. Assays were performed in triplicate on three independent experiments.

[6] = system: breast cancer stem-like cells (BCSCs), ALDHhigh and CD24low/CD44high; experiment: Anti-stemness activity in breast cancer stem-like cells; format: cell-based
Text: as §4

c1nc2nc(Nc3ccc(N4CC[Se]CC4)cc3)nc(N[C@H]3CC[Se]C3)c2[nH]1 [SLLN-15]
indicators of apoptosis: upregulation of cleaved-PARP and cleaved-caspase 3, downregulation of Bcl-2 ([1]; FIG. 6B): not SLLN-15 treated cells
apoptosis ([1]; up to 48 hours post-exposure, breast cancer cells): no significant apoptosis was observed
phosphorylation levels of Akt, mTOR, p70S6K, S6 and 4EBP1 [2]: decreased phosphorylation levels
inhibition of Aurora kinase A (Aurora kinase A): 91%
inhibition of Janus kinase 2 (JAK2) (Janus kinase 2 (JAK2)): 85%
anti-metastatic activity ([3]; mice bearing MDA-MB-231-M2 or 4T1 tumors, administered intraperitoneally): significant anti-metastatic activity
MDA-MB-231-M2 progression to metastasis ([3]; pretreatment ex vivo prior to mouse implantation): significantly attenuated
tolerability (In vivo tolerability): well-tolerated
tumor volumes ([4]; 30 mg/kg given PO, compared to vehicle, FIG. 1D): reduced
tumor weights ([4]; 30 mg/kg given PO, compared to vehicle, FIG. 1E): reduced
tumor allograft growth rate ([4]; 30 mg/kg given PO, compared to vehicle, FIGS. 1D and E): grew at a slower rate
number of lung metastases ([4]; compared with vehicle-treated animals, FIG. 1F): significant inhibition of the number of lung metastases
short-term and long-term cell viability (MTT and clonogenic assay) ([5]; SLLN-15 in presence of autophagy inhibitor 3-MA, FIGS. 5D and E): rescued both short-term and long-term cell viability
cell viability (MTT) ([5]; time-dependent, SLLN-15 compared with vorinostat, FIG. 6A): markedly decreased cell viability
overall cell viability (MTT) ([5]; treatment for 24 hours, dose-dependent, FIG. 1C): markedly decreased overall cell viability
centrosomes clustering ([6]; FIGS. 8A and 8B): interferes with centrosomes clustering
cell locomotion ([6]; MDA-MB-231, sorted BCSC subpopulation, concurrent inhibition of focal adhesion kinase signaling): induced loss of cell locomotion
BCSC-marker expression, tumorspheres formation, STAT3 activation, mitotic spindle assembly ([6]; SLLN-15-treated cells): reduced BCSC-marker expression, tumorspheres formation, STAT3 activation and defective mitotic spindle assembly

From patent US12012408B2, “Purine compounds and method for the treatment of cancer” (THE ROYAL INSTITUTION FOR THE ADVANCEMENT OF …, priority 2018, dated 2024)
